# Assay results reported in paper PMC10051477, “5,8-Dimethyl-9H-carbazole Derivatives Blocking hTopo I Activity and Actin Dynamics” (Pharmaceuticals, 2023).
# Tests used:
# [1] = target: T1, F-actin (labeled rabbit muscle actin) (Oryctolagus cuniculus, UniProt P68135); experiment: In vitro F-actin depolymerization assay; format: biochemical; conditions: 5 µM added after 1 h polymerization, monitored 1 h; vehicle 20,000 RFU
# T1 construct: fluorescent label (chemical); purchased Abcam; host or cells: rabbit muscle
# Description: Moreover, we performed the F-actin depolymerization assay to verify whether compounds 3 and 4 could induce the actin depolymerization as well as the LA does (Figure 5, panel B). For this purpose, we started the actin polymerization for one hour under the same experimental conditions used previously. Then, we added the compounds or the reference molecules at the concentration of 5 µM and monitored the reactions for an additional hour. […] The addition of CB was not able to produce the same effect of LA. […] Contrarily, both the compounds were able to induce an important depolymerizing effect on the F-actin, most evident in the first 7 min after the exposure. Particularly, compounds 3 and 4 produced final values of approximately 14,000 and 12,000 RFU, respectively. […] This combined effect leads to a disorganization of the intracellular actin network.
# An Actin Polymerization/Depolymerization Assay Kit, purchased from Abcam, was employed to assess the ability of compounds 3 and 4 to interfere with the actin polymerization and depolymerization processes. To perform the essays, the manufacturer’s instructions were followed with some modifications. In particular, polymerization assay was carried out incubating in a white 96-well plate the reconstituted actin with supplemented Buffer G, compounds 3 and 4 and then Buffer P was added in order to induce actin polymerization. For the Actin Depolymerization Assay, the actin polymerization was first induced, incubating supplemented Buffers P and G at room temperature for one hour. Then, compounds 3 and 4 were added at a concentration of 5 μM. Latrunculin A (LA) and Cytochalasin B (CB) were utilized as positive control at a concentration of 5 μM. For both the assays, the assemblage of the actin filaments was defined by measuring the fluorescence (Ex/Em: 365/410 nm) in kinetic mode for 1 h at room temperature in a microplate reader.
# hTopo I = target: T2, hTopo I (Homo sapiens, UniProt P11387); experiment: hTopo I relaxation assay; format: biochemical; conditions: compound at 1 μM, pHOT1 plasmid, agarose gel
# T2 construct: purchased TopoGEN
# T2 sequence (P11387 1-765): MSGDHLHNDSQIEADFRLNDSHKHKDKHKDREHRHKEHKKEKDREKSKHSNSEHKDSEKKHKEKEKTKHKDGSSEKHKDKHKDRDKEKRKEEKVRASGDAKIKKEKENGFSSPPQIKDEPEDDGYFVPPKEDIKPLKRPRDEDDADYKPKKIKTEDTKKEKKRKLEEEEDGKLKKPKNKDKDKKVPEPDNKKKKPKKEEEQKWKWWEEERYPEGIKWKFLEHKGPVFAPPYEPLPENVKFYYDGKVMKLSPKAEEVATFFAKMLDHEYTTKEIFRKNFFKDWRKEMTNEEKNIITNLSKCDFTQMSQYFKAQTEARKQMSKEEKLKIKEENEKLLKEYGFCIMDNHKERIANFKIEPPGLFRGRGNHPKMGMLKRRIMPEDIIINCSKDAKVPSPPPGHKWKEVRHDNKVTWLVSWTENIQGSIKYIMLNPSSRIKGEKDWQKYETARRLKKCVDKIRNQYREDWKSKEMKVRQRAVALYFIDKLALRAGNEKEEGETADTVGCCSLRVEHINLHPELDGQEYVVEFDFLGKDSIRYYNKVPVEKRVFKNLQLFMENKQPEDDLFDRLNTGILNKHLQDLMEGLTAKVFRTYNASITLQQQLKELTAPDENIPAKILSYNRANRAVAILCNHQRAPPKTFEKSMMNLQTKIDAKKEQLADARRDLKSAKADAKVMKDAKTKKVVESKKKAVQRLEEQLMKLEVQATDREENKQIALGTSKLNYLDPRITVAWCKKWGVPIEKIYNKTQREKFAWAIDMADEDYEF
# Description: Indeed, as shown in Figure 3a (lanes 3 and 4), a clear band of the uncut plasmid DNA at the bottom of the gel is present. The uncut plasmid pHOT1, used as marker, is present in Figure 3a, lane 1. On the contrary, in the control reaction (only vehicle, Figure 3a, lane 2), it is possible to observe the presence of multiple bands corresponding to the relaxed plasmid DNA, used as substrate.
# hTopo I relaxation assays were performed as indicated in the manufacturer’s protocol (TopoGEN, Port Orange, FL, USA) with some revisions. hTopo I relaxation assays were performed in a final volume of 20 μL: 0.25 μg of supercoiled pHOT1 in TE buffer [TE: 10 mM Tris-HCl (pH 7.5), 1 mM EDTA] was added to a solution containing water, 1× assay buffer (10 mM Tris-HCl (pH 7.9), 1 mM EDTA, 0.5 mM NaCl, 0.1% bovine serum albumin, 0.1 mM spermidine and 5% glycerol) and the tested compounds. The mix was incubated for 15 min at 37 °C. Then, the reaction was initiated by addition of recombinant hTopo I (2 U), incubated at 37 °C for 1 h and terminated by the addition of 5× stop buffer (5% sarkosyl, 25% glycerol, 0.125% bromophenol blue). The aqueous phase was loaded onto a 1% agarose gel containing 1× TAE buffer (diluted from50× buffer containing 242 g Tris base, 57.1 mL glacial acetic acid and 100 mL of 0.5 M EDTA) without ethidium bromide (EB). […]
# [2] = test system: actin system in MDA-MB-231 cells; experiment: Actin immunofluorescence in MDA-MB-231 cells; format: cell-based, human; conditions: MDA-MB-231, 24 h; compounds at their IC50 values, LA 0.1 µM
# Description: In order to determine whether the lead compounds 3 and 4 may effectively regulate the actin system, we employed both the immunofluorescence and in vitro direct enzymatic assays. […] As negative and positive controls, we used the only vehicle (DMSO) and latrunculin A (LA) at a concentration of 0.1 µM, respectively. After processing, the cells were observed under a fluorescent microscope, (see experimental section for the details). […] Moreover, the latter looked brighter and stocked in the cytoplasm in dot-like structures or thicker fibers. Again, the MDA-MB-231 cells, under exposure to compounds 3 and 4, lost their shape (Figure 4, compounds 3 and 4, panels B), as we observed under LA treatment, and with a very similar arrangement of the actin network.
# The cells were plated and further processed, as previously indicated. Specifically, the rabbit anti-β-Actin (Santa Cruz Biotechnology, Dallas, TX, USA), diluted 1:100 in bovine serum albumin (BSA) 2%, was used as primary antibody and incubated overnight at 4 °C. The secondary antibody, Alexa Fluor® 488 conjugate goat-anti-rabbit, was diluted 1:500 and incubated for 2 h at 37 °C. DAPI (4′,6-diamidino-2-phenylindole, Sigma Aldrich, Milan, Italy) 0.2 μg/mL was used for nuclei staining. A fluorescence microscope (Leica DM 6000) was utilized for fluorescence detection (40× magnification). LAS-X software allowed acquiring and processing all the fluorescence images, which are representative of three separate experiments.
"F-actin depolymerization, final fluorescence value of reaction curve [1]",Inhibition of hTopo I supercoiling relaxing activity (hTopo I),Compound,Effect on actin organization (immunofluorescence) [2]
"~12,000 RFU",totally inhibited,Cc1ccc(C)c2c1c1cc(O)ccc1n2C(=O)OC(C)(C)C [Compound 4],interfere with the normal actin organization
"approximately 14,000 RFU",totally inhibited,Cc1ccc(C)c2c1c1cc(B(O)O)ccc1n2C(=O)OC(C)(C)C [Compound 3],interfere with the normal actin organization
